Laboratory results from patent US9695171B2, “3,4-disubstituted-1 H-pyrrolo[2,3-b]pyridines and 4,5-disubstituted-7H-pyrrolo[2,3-c]pyridazines as LRRK2 inhibitors” (Pfizer Inc., priority 2013, dated 2017).
pEC50: −log10 of the molar value.

Molecular target: T1, GST-tagged truncated LRRK2 (Homo sapiens, UniProt Q5S007)
T1 construct: GST-tagged truncated LRRK2 from Invitrogen (Cat # PV4874); GST; purchased Invitrogen PV4874
Test: LRRK2 kinase assay (Lantha Screen)
Type: biochemical
Details: 1 mM ATP (head); a = geometric mean of >=4 determinations, b = single determination; read-out: LRRK2 LANTHA EC50 at 1 mM ATP; Geometric mean of 2-3 determinations unless otherwise indicated
Procedure: LRRK2 kinase activity was measured using Lantha Screen technology from Invitrogen. GST-tagged truncated LRRK2 from Invitrogen (Cat # PV4874) was incubated with a fluorescein-labeled peptide substrate based upon ezrin/radixin/moesin (ERM), also known as LRRKtide (Invitrogen cat # PR8976A), in the presence of a dose response of compound. Upon completion, the assay was stopped and detected with a terbium labeled anti-phospho-ERM antibody (Invitrogen, cat # PR8975A). […] The compound dose response was prepared by diluting compound to a top concentration of 3.16 mM in 100% DMSO and serial diluted by half-log in DMSO 11 times. Aliquots (3.5 μL) of the 100% DMSO dose response were mixed with 46.5 μL water then 1 μL of this mixture was added to the 3 μL substrate mix in the 384-well plate. The kinase reaction was started with 3 μL of a working solution of LRRK2 enzyme at a concentration of 4 μg/mL. […] The reaction was allowed to progress at room temperature for two hours and then stopped with the addition of 7 μL of detection buffer (20 mM Tris pH 7.6, 0.01% NP-40, 0.02% NaN3, 6 mM EDTA with 2 nM terbium labeled anti-phospho-ERM). After an incubation of 1 hour at room temperature, the plate was read on an Envision with an excitation wavelength of 340 nm and a reading emission at both 520 nm and 495 nm. The ratio of the 520 nm and 495 nm emission was used to analyze the data.

T1 sequence (Q5S007 970-2527 limits assumed): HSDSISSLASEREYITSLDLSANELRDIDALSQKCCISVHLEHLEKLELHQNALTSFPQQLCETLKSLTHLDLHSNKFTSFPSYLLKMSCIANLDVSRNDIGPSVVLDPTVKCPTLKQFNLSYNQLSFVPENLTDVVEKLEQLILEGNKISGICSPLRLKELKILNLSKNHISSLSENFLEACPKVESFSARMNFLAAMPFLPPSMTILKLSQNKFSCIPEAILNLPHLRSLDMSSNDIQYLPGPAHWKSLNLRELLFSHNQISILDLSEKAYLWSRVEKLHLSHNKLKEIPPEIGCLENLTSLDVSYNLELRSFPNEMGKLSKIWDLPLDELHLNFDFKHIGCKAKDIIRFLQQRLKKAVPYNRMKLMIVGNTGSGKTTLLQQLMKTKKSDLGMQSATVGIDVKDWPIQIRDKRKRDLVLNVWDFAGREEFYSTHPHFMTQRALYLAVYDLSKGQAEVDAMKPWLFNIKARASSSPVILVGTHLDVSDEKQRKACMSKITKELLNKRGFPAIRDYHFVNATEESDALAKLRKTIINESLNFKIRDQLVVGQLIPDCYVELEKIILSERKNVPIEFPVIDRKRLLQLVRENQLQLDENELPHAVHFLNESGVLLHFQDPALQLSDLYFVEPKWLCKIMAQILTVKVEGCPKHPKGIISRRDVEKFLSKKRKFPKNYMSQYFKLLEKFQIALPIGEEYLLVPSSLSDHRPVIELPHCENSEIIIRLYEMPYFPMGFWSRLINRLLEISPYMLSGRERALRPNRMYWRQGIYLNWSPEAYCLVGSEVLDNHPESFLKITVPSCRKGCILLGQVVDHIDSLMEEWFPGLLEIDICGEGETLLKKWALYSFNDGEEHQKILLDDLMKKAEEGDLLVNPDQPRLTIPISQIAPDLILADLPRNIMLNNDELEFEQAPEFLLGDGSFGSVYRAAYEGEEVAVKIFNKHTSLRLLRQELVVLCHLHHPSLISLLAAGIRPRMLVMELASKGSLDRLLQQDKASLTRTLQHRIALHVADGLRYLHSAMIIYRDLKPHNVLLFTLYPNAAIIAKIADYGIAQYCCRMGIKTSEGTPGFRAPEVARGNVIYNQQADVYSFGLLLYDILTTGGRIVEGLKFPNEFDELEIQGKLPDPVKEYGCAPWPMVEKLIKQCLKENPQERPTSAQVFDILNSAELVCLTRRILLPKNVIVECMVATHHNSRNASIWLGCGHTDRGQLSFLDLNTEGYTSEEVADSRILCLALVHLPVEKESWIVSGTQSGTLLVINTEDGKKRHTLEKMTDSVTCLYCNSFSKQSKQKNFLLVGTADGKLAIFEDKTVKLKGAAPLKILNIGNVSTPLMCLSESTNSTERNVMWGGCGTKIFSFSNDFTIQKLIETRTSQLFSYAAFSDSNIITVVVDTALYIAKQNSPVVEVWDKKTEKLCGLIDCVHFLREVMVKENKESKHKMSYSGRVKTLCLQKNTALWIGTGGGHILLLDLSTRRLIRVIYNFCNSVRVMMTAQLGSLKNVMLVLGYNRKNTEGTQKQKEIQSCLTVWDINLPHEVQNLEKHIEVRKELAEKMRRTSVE

| SMILES | pEC50 |
| --- | --- |
| O=c1cc(-c2c[nH]c3nccc(N4CCOCC4)c23)cc[nH]1 [Example 81, 4-[4-(morpholin-4-yl)-1H-pyrrolo[2,3-b]pyridin-3-yl]pyridin-2(1H)-one] | 7.95 |
| COC(=O)c1cnc2[nH]cc(-c3cccc(C#N)c3)c2c1N1CCOCC1 [Example 82, methyl 3-(3-cyanophenyl)-4-(morpholin-4-yl)-1H-pyrrolo[2,3-b]pyridine-5-carboxylate] | 7.91 |
| N#CCc1cnc2[nH]cc(-c3cccc(C#N)c3)c2c1N1CCOCC1 [Example 83, 3-[5-(cyanomethyl)-4-(morpholin-4-yl)-1H-pyrrolo[2,3-b]pyridin-3-yl]benzonitrile] | 6.97 |
| COCc1cnc2[nH]cc(-c3cccc(C#N)c3)c2c1N1CCOCC1 [Example 84, 3-[5-(methoxymethyl)-4-(morpholin-4-yl)-1H-pyrrolo[2,3-b]pyridin-3-yl]benzonitrile] | 7.20 |
| Cn1cc(-c2c[nH]c3nccc(N4CCOCC4)c23)cc1C(N)=O [Example 85, 1-methyl-4-[4-(morpholin-4-yl)-1H-pyrrolo[2,3-b]pyridin-3-yl]-1H-pyrrole-2-carboxamide] | 7.66 |
| N#Cc1cc(-c2c[nH]c3nccc(N4CCOCC4)c23)c[nH]1 [Example 86, 4-[4-(morpholin-4-yl)-1H-pyrrolo[2,3-b]pyridin-3-yl]-1H-pyrrole-2-carbonitrile] | 8.56 |
| Cc1[nH]c2nccc(N3CCOCC3)c2c1-c1cc(C#N)n(C)c1 [Example 87, 1-methyl-4-[2-methyl-4-(morpholin-4-yl)-1H-pyrrolo[2,3-b]pyridin-3-yl]-1H-pyrrole-2-carbonitrile] | 8.26 |
| N#Cc1cccc(-c2c[nH]c3nccc(-c4ccncc4)c23)c1 [Example 88, 3-[4-(pyridin-4-yl)-1H-pyrrolo[2,3-b]pyridin-3-yl]benzonitrile] | 8.00 |
| Cn1cc(-c2c[nH]c3nccc(-c4ccccc4)c23)cn1 [Example 89, 3-(1-methyl-1H-pyrazol-4-yl)-4-phenyl-1H-pyrrolo[2,3-b]pyridine] | 7.86 |
| N#Cc1cccc(-c2c[nH]c3nncc(N4CCOCC4)c23)c1 [Example 90, 3-[4-(morpholin-4-yl)-7H-pyrrolo[2,3-c]pyridazin-5-yl]benzonitrile] | 7.37 |
| N#Cc1cccc(-c2c[nH]c3nccc(-c4cccc(C(=O)NC5CC5)c4)c23)c1 [Example 91, 3-[3-(3-cyanophenyl)-1H-pyrrolo[2,3-b]pyridin-4-yl]-N-cyclopropylbenzamide] | 7.36 |
| N#Cc1cccc(-c2c[nH]c3nncc(N4CCOCC4)c23)c1F [Example 92, 2-fluoro-3-[4-(morpholin-4-yl)-7H-pyrrolo[2,3-c]pyridazin-5-yl]benzonitrile] | 7.36 |
| N#Cc1cccc(-c2c[nH]c3nccc(-c4cccnc4)c23)c1 [Example 93, 3-[4-(pyridin-3-yl)-1H-pyrrolo[2,3-b]pyridin-3-yl]benzonitrile] | 7.34 |
| Cn1cc(-c2c[nH]c3nccc(-c4ccc(F)c(F)c4)c23)cn1 [Example 94, 4-(3,4-difluorophenyl)-3-(1-methyl-1H-pyrazol-4-yl)-1H-pyrrolo[2,3-b]pyridine] | 7.34 |
| Cn1cc(-c2c[nH]c3nccc(-c4cc(F)ccc4F)c23)cn1 [Example 95, 4-(2,5-difluorophenyl)-3-(1-methyl-1H-pyrazol-4-yl)-1H-pyrrolo[2,3-b]pyridine] | 7.31 |
| Cn1cc(-c2c[nH]c3nccc(-c4cccc(F)c4F)c23)cn1 [Example 96, 4-(2,3-difluorophenyl)-3-(1-methyl-1H-pyrazol-4-yl)-1H-pyrrolo[2,3-b]pyridine] | 7.23 |

| SMILES | pEC50 |
| --- | --- |
| Cn1cc(-c2c[nH]c3nccc(-c4cccc(Cl)c4)c23)cn1 [Example 97, 4-(3-chlorophenyl)-3-(1-methyl-1H-pyrazol-4-yl)-1H-pyrrolo[2,3-b]pyridine] | 7.20 |
| COc1cccc(-c2ccnc3[nH]cc(-c4cnn(C)c4)c23)c1F [Example 98, 4-(2-fluoro-3-methoxyphenyl)-3-(1-methyl-1H-pyrazol-4-yl)-1H-pyrrolo[2,3-b]pyridine] | 7.07 |
| CNS(=O)(=O)c1cccc(-c2ccnc3[nH]cc(-c4cccc(C#N)c4)c23)c1 [Example 99, 3-[3-(3-cyanophenyl)-1H-pyrrolo[2,3-b]pyridin-4-yl]-N-methylbenzenesulfonamide] | 7.03 |
| COc1ccc(F)c(F)c1-c1c[nH]c2ncc(C#N)c(C3CC3)c12 [Example 100, 4-cyclopropyl-3-(2,3-difluoro-6-methoxyphenyl)-1H-pyrrolo[2,3-b]pyridine-5-carbonitrile] | 7.00 |
| Cn1cc(-c2ccnc3[nH]cc(-c4cccc(C#N)c4)c23)cn1 [Example 101, 3-[4-(1-methyl-1H-pyrazol-4-yl)-1H-pyrrolo[2,3-b]pyridin-3-yl]benzonitrile] | 7.00 |
| Cn1cc(-c2c[nH]c3nccc(-c4ccncc4)c23)cn1 [Example 102, 3-(1-methyl-1H-pyrazol-4-yl)-4-(pyridin-4-yl)-1H-pyrrolo[2,3-b]pyridine] | 6.99 |
| Cn1cc(-c2c[nH]c3nccc(-c4cc(F)cc(F)c4)c23)cn1 [Example 103, 4-(3,5-difluorophenyl)-3-(1-methyl-1H-pyrazol-4-yl)-1H-pyrrolo[2,3-b]pyridine] | 6.90 |
| COc1ccc(-c2ccnc3[nH]cc(-c4cnn(C)c4)c23)cc1F [Example 104, 4-(3-fluoro-4-methoxyphenyl)-3-(1-methyl-1H-pyrazol-4-yl)-1H-pyrrolo[2,3-b]pyridine] | 6.86 |
| COc1ccc(-c2ccnc3[nH]cc(-c4cnn(C)c4)c23)c(F)c1 [Example 105, 4-(2-fluoro-4-methoxyphenyl)-3-(1-methyl-1H-pyrazol-4-yl)-1H-pyrrolo[2,3-b]pyridine] | 6.84 |
| Cn1cc(-c2c[nH]c3nccc(-c4ccoc4)c23)cn1 [Example 106, 4-(furan-3-yl)-3-(1-methyl-1H-pyrazol-4-yl)-1H-pyrrolo[2,3-b]pyridine] | 6.84 |
| Cn1cc(-c2c[nH]c3nccc(-c4ccc5scnc5c4)c23)cn1 [Example 107, 5-[3-(1-methyl-1H-pyrazol-4-yl)-1H-pyrrolo[2,3-b]pyridin-4-yl]-1,3-benzothiazole] | 6.77 |
| Cn1cc(-c2c[nH]c3nccc(-c4cccc(CC#N)c4)c23)cn1 [Example 108, {3-[3-(1-methyl-1H-pyrazol-4-yl)-1H-pyrrolo[2,3-b]pyridin-4-yl]phenyl}acetonitrile] | 6.73 |
| Cn1cc(-c2c[nH]c3nccc(-c4cccc(C#N)c4)c23)cn1 [Example 109, 3-[3-(1-methyl-1H-pyrazol-4-yl)-1H-pyrrolo[2,3-b]pyridin-4-yl]benzonitrile] | 6.73 |
| Cn1cc(-c2c[nH]c3nncc(N4CCOCC4)c23)cn1 [Example 110, 5-(1-methyl-1H-pyrazol-4-yl)-4-(morpholin-4-yl)-7H-pyrrolo[2,3-c]pyridazine] | 6.70 |
| COCc1cccc(-c2ccnc3[nH]cc(-c4cnn(C)c4)c23)c1 [Example 111, 4-[3-(methoxymethyl)phenyl]-3-(1-methyl-1H-pyrazol-4-yl)-1H-pyrrolo[2,3-b]pyridine] | 6.63 |
| Cc1nnc(-c2cccc(-c3ccnc4[nH]cc(-c5cccc(C#N)c5)c34)c2)o1 [Example 112, 3-{4-[3-(5-methyl-1,3,4-oxadiazol-2-yl)phenyl]-1H-pyrrolo[2,3-b]pyridin-3-yl}benzonitrile] | 6.63 |
